Target: T1, human MGL from HeLa cells (Homo sapiens, UniProt Q99685)
T1 construct: combining endogenously expressed MGL from HeLa cells with test compounds; endogenous in cells; host or cells: HeLa cells / cell homogenates
T1 sequence (Q99685 1-303): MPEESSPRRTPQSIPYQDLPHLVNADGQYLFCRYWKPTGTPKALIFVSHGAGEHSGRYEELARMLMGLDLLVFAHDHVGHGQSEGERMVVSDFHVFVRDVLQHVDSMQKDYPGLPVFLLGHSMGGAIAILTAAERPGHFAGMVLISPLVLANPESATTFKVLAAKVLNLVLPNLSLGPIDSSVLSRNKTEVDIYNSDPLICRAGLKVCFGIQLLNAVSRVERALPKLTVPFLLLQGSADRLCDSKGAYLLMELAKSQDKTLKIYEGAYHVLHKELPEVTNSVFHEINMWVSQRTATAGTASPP
Experiment: In vitro MGL activity assay: [glycerol-1,3-3H]-oleyl glycerol cleavage by MGL from HeLa cells
Assay type: biochemical
Conditions: 300 nM [Glycerol-1,3-3H]-oleyl glycerol, one hour incubation
Source text: MGL is the predominant hydrolase in HeLa cells/cell homogenates.

IC50	SMILES
108 nM	Cn1nc2c(c1-c1ccccc1)CCN(C(=O)c1cccc3cnccc13)C2 [Example 92, Isoquinolin-5-yl(2-methyl-3-phenyl-2,4,5,7-tetrahydro-6H-pyrazolo[3,4-c]pyridin-6-yl)methanone]
126 nM	Cn1nc2c(c1-c1ccccc1)CCN(C(=O)c1cccc3cccnc13)C2 [Example 93, (2-Methyl-3-phenyl-2,4,5,7-tetrahydro-6H-pyrazolo[3,4-c]pyridin-6-yl)(quinolin-8-yl)methanone]
282 nM	Cn1nc2c(c1-c1ccccc1)CCN(C(=O)c1ccc3ccccc3n1)C2 [Example 94, (2-Methyl-3-phenyl-2,4,5,7-tetrahydro-6H-pyrazolo[3,4-c]pyridin-6-yl)(quinolin-2-yl)methanone]
984 nM	Cn1nc2c(c1-c1ccccc1)CCN(C(=O)c1cnc3ccccc3c1)C2 [Example 95, (2-Methyl-3-phenyl-2,4,5,7-tetrahydro-6H-pyrazolo[3,4-c]pyridin-6-yl)(quinolin-3-yl)methanone]
258 nM	Cn1nc2c(c1-c1ccccc1)CCN(C(=O)c1ccnc3c(F)cccc13)C2 [Example 96, (8-Fluoroquinolin-4-yl)(2-methyl-3-phenyl-2,4,5,7-tetrahydro-6H-pyrazolo[3,4-c]pyridin-6-yl)methanone]
4260 nM	Cn1nc2c(c1-c1ccccc1)CCN(C(=O)c1cccc3nccnc13)C2 [Example 97, (2-Methyl-3-phenyl-2,4,5,7-tetrahydro-6H-pyrazolo[3,4-c]pyridin-6-yl)(quinoxalin-5-yl)methanone]
973 nM	Cn1nc2c(c1-c1cccc(OC(F)F)c1)CCN(C(=O)c1ccc3ncccc3c1)C2 [Example 98, (3-(3-(Difluoromethoxy)phenyl)-2-methyl-2,4,5,7-tetrahydro-6H-pyrazolo[3,4-c]pyridin-6-yl)(quinolin-6-yl)methanone]
268 nM	Cn1nc2c(c1-c1cccc(Cl)c1)CCN(C(=O)c1ccc3ncccc3c1)C2 [Example 99, (3-(3-Chlorophenyl)-2-methyl-2,4,5,7-tetrahydro-6H-pyrazolo[3,4-c]pyridin-6-yl)(quinolin-6-yl)methanone]
125 nM	Cn1nc2c(c1-c1cccc(F)c1)CCN(C(=O)c1ccc3ncccc3c1)C2 [Example 100, (3-(3-Fluorophenyl)-2-methyl-2,4,5,7-tetrahydro-6H-pyrazolo[3,4-c]pyridin-6-yl)(quinolin-6-yl)methanone]
52.4 nM	Cn1nc2c(c1-c1cc(F)cc(F)c1)CCN(C(=O)c1ccc3ncccc3c1)C2 [Example 101, (3-(3,5-Difluorophenyl)-2-methyl-2,4,5,7-tetrahydro-6H-pyrazolo[3,4-c]pyridin-6-yl)(quinolin-6-yl)methanone]
158 nM	Cc1ccc(-c2c3c(nn2C)CN(C(=O)c2noc4ccccc24)CC3)s1 [Example 102, Benzo[d]isoxazol-3-yl(2-methyl-3-(5-methylthiophen-2-yl)-2,4,5,7-tetrahydro-6H-pyrazolo[3,4-c]pyridin-6-yl)methanone]
264 nM	Cn1nc2c(c1-c1ccc(C(F)(F)F)s1)CCN(C(=O)c1ccc3ncccc3c1)C2 [Example 103, (2-Methyl-3-(5-(trifluoromethyl)thiophen-2-yl)-2,4,5,7-tetrahydro-6H-pyrazolo[3,4-c]pyridin-6-yl)(quinolin-6-yl)methanone]
791 nM	Cn1nc2c(c1-c1cc3ccccc3[nH]1)CCN(C(=O)c1ccc3ncccc3c1)C2 [Example 104, (3-(1H-Indol-2-yl)-2-methyl-2,4,5,7-tetrahydro-6H-pyrazolo[3,4-c]pyridin-6-yl)(quinolin-6-yl)methanone]
406 nM	Cn1nc2c(c1-c1cc3ccccc3n1C)CCN(C(=O)c1ccc3ncccc3c1)C2 [Example 105, (2-Methyl-3-(1-methyl-1H-indol-2-yl)-2,4,5,7-tetrahydro-6H-pyrazolo[3,4-c]pyridin-6-yl)(quinolin-6-yl)methanone]
7.36 nM	CC1c2nn(C)c(-c3cc(F)cc(F)c3)c2CCN1C(=O)c1ccc2ncccc2c1 (centres unmarked) [Example 106, (3-(3,5-Difluorophenyl)-2,7-dimethyl-2,4,5,7-tetrahydro-6H-pyrazolo[3,4-c]pyridin-6-yl)(quinolin-6-yl)methanone]
261 nM	Cc1ccc(-c2c3c(nn2C)[C@H](C)N(C(=O)c2ccc4nccnc4c2)CC3)o1 [Example 107, (S)-(2,7-Dimethyl-3-(5-methylfuran-2-yl)-2,4,5,7-tetrahydro-6H-pyrazolo[3,4-c]pyridin-6-yl)(quinoxalin-6-yl)methanone]

Second part, the compound before the results:

SMILES	IC50
Cn1nc2c(c1-c1ccccc1)CCN(C(=O)c1ccn3nccc3c1)C2 [Example 73, (2-Methyl-3-phenyl-2,4,5,7-tetrahydro-6H-pyrazolo[3,4-c]pyridin-6-yl)(pyrazolo[1,5-a]pyridin-5-yl)methanone]	2500 nM
Cn1nc2c(c1-c1ccccc1)CCN(C(=O)c1cnn3ccccc13)C2 [Example 74, (2-Methyl-3-phenyl-2,4,5,7-tetrahydro-6H-pyrazolo[3,4-c]pyridin-6-yl)(pyrazolo[1,5-a]pyridin-3-yl)methanone]	613 nM
Cn1nc2c(c1-c1ccccc1)CCN(C(=O)c1cccc3ccnn13)C2 [Example 75, (2-Methyl-3-phenyl-2,4,5,7-tetrahydro-6H-pyrazolo[3,4-c]pyridin-6-yl)(pyrazolo[1,5-a]pyridin-7-yl)methanone]	1800 nM
Cn1nc2c(c1-c1ccccc1)CCN(C(=O)c1ncn3ccccc13)C2 [Example 76, Imidazo[1,5-a]pyridin-1-yl(2-methyl-3-phenyl-2,4,5,7-tetrahydro-6H-pyrazolo[3,4-c]pyridin-6-yl)methanone]	6110 nM
Cn1nc2c(c1-c1ccccc1)CCN(C(=O)c1ccc3cncn3c1)C2 [Example 77, Imidazo[1,5-a]pyridin-6-yl(2-methyl-3-phenyl-2,4,5,7-tetrahydro-6H-pyrazolo[3,4-c]pyridin-6-yl)methanone]	5160 nM
Cn1nc2c(c1-c1ccccc1)CCN(C(=O)c1ccn3cncc3c1)C2 [Example 78, Imidazo[1,5-a]pyridin-7-yl(2-methyl-3-phenyl-2,4,5,7-tetrahydro-6H-pyrazolo[3,4-c]pyridin-6-yl)methanone]	2000 nM
Cn1nc2c(c1-c1ccccc1)CCN(C(=O)c1cccc3cncn13)C2 [Example 79, Imidazo[1,5-a]pyridin-5-yl(2-methyl-3-phenyl-2,4,5,7-tetrahydro-6H-pyrazolo[3,4-c]pyridin-6-yl)methanone]	1190 nM
Cn1nc2c(c1-c1ccccc1)CCN(C(=O)c1cccc3nccn13)C2 [Example 80, Imidazo[1,2-a]pyridin-5-yl(2-methyl-3-phenyl-2,4,5,7-tetrahydro-6H-pyrazolo[3,4-c]pyridin-6-yl)methanone]	2330 nM
Cn1nc2c(c1-c1ccccc1)CCN(C(=O)c1cnc3ccccn13)C2 [Example 81, Imidazo[1,2-a]pyridin-3-yl(2-methyl-3-phenyl-2,4,5,7-tetrahydro-6H-pyrazolo[3,4-c]pyridin-6-yl)methanone]	1320 nM
Cc1nc2cccc(Cl)n2c1C(=O)N1CCc2c(nn(C)c2-c2ccccc2)C1 [Example 82, (5-Chloro-2-methylimidazo[1,2-a]pyridin-3-yl)(2-methyl-3-phenyl-2,4,5,7-tetrahydro-6H-pyrazolo[3,4-c]pyridin-6-yl)methanone]	4810 nM
Cn1nc2c(c1-c1ccccc1)CCN(C(=O)c1c[nH]c3ccncc13)C2 [Example 83, (2-Methyl-3-phenyl-2,4,5,7-tetrahydro-6H-pyrazolo[3,4-c]pyridin-6-yl)(1H-pyrrolo[3,2-c]pyridin-3-yl)methanone]	1500 nM
Cn1nc2c(c1-c1ccccc1)CCN(C(=O)c1ccnc3c1ccn3C)C2 [Example 84, (1-Methyl-1H-pyrrolo[2,3-b]pyridin-4-yl)(2-methyl-3-phenyl-2,4,5,7-tetrahydro-6H-pyrazolo[3,4-c]pyridin-6-yl)methanone]	48.3 nM
Cn1nc2c(c1-c1ccccc1)CCN(C(=O)c1cccc3ncnn13)C2 [Example 85, [1,2,4]Triazolo[1,5-a]pyridin-5-yl(2-methyl-3-phenyl-2,4,5,7-tetrahydro-6H-pyrazolo[3,4-c]pyridin-6-yl)methanone]	7140 nM
Cn1nc2c(c1-c1ccccc1)CCN(C(=O)c1ccnc3ccccc13)C2 [Example 86, (2-Methyl-3-phenyl-2,4,5,7-tetrahydro-6H-pyrazolo[3,4-c]pyridin-6-yl)(quinolin-4-yl)methanone]	32.4 nM
Cn1nc2c(c1-c1ccccc1)CCN(C(=O)c1cncc3ccccc13)C2 [Example 87, Isoquinolin-4-yl(2-methyl-3-phenyl-2,4,5,7-tetrahydro-6H-pyrazolo[3,4-c]pyridin-6-yl)methanone]	39.8 nM
Cn1nc2c(c1-c1ccccc1)CCN(C(=O)c1nccc3ccccc13)C2 [Example 88, Isoquinolin-1-yl(2-methyl-3-phenyl-2,4,5,7-tetrahydro-6H-pyrazolo[3,4-c]pyridin-6-yl)methanone]	47.3 nM
Cn1nc2c(c1-c1ccccc1)CCN(C(=O)c1cccc3ncccc13)C2 [Example 89, (2-Methyl-3-phenyl-2,4,5,7-tetrahydro-6H-pyrazolo[3,4-c]pyridin-6-yl)(quinolin-5-yl)methanone]	56 nM
Cn1nc2c(c1-c1ccccc1)CCN(C(=O)c1ccc3ncccc3c1)C2 [Example 90, (2-Methyl-3-phenyl-2,4,5,7-tetrahydro-6H-pyrazolo[3,4-c]pyridin-6-yl)(quinolin-6-yl)methanone]	227 nM
CCn1nc2c(c1-c1ccccc1)CCN(C(=O)c1ccc3ncccc3c1)C2 [Example 91, (2-Ethyl-3-phenyl-2,4,5,7-tetrahydro-6H-pyrazolo[3,4-c]pyridin-6-yl)(quinolin-6-yl)methanone]	781 nM
